In patent publication US20120001065A1, “EVALUATING RENAL FUNCTION” (Mayo Foundation for Medical Education and Rsearch, priority 2009, published 2012):
“And” between values parts separate entries of the source, which are not always exact repeats. Identical values can stand only once.

How the values were obtained:
[1] = GFR and ERPF-Long Renal Clearance (iothalamate and PAH continuous infusion): iothalamate concentration and GFR; assay type: in vivo; set-up: CE GFR / MS GFR: unit not given here; conditions: one human subject; for CE GFR: corrected GFR per collection period from CE-UV; for CE GFR / MS GFR / Urine iothalamate concentration, CE / Urine iothalamate concentration, MS: continuous infusion; for MS GFR: corrected GFR per collection period from LC-MS/MS; for Plasma iothalamate concentration, CE / Plasma iothalamate concentration, MS: timed plasma collections P1-P6, continuous intravenous infusion; for Plasma iothalamate concentration, CE / Urine iothalamate concentration, CE: CE-UV; for Plasma iothalamate concentration, MS / Urine iothalamate concentration, MS: LC-MS/MS; for Urine iothalamate concentration, CE / Urine iothalamate concentration, MS: timed urine collections U1-U5
Description: For example, GFR can be calculated according to Formula I.
where UIoth is the concentration of iothalamate in urine, V is the urine flow rate (volume per unit of time), and PIoth is the plasma concentration during the urine collection period.
For the simultaneous determination of GFR and ERPF, iothalamate (Conray®, Mallinckrodt Inc. St. Louis, Mo.) and PAH (Aminohippurate Sodium, Merck & Co. Inc. Whitehouse Station, N.J.) were administered intravenously to one human subject. Iothalamate and PAH were administered using previously described constant infusion protocol. […] Blood samples were collected in tubes containing heparin or EDTA. Blood samples were centrifuged at 650 g for 7 minutes to separate plasma. Plasma was collected and stored at 4° C. to 8° C. Urine samples were collected and stored at 4° C. to 8° C. Frozen plasma and urine samples were thawed and stored at 4° C. to 8° C. until analysis.
The timed plasma collections (100 μL of each) were processed independently by diluting 1:3 with water followed by the addition of internal standard, D3-iothalamate and D4-PAH (20 μL of 38 μg/mL stock). The urine samples were diluted 1:10 with water and followed by the addition of internal standard, D3-iothalamate. All urine and plasma samples were then subjected to acetonitrile and/or 70% acetone polypeptide precipitation (100 μL) followed by centrifugation for 5 minutes at 650 g to remove/pellet protein. […]

[2] = GFR and ERPF-Long Renal Clearance (iothalamate and PAH continuous infusion): PAH concentration and ERPF; assay type: in vivo; set-up: CE ERPF / MS ERPF: unit not given here; conditions: one human subject
Description: ERPF can be calculated according to Formula II.
Blood samples were collected in tubes containing heparin or EDTA. Blood samples were centrifuged at 650 g for 7 minutes to separate plasma. Plasma was collected and stored at 4° C. to 8° C. Urine samples were collected and stored at 4° C. to 8° C. Frozen plasma and urine samples were thawed and stored at 4° C. to 8° C. until analysis.
The urine samples were diluted 1:10 with water and followed by the addition of internal standard, D3-iothalamate. All urine and plasma samples were then subjected to acetonitrile and/or 70% acetone polypeptide precipitation (100 μL) followed by centrifugation for 5 minutes at 650 g to remove/pellet protein. […]

In the case of CNC(=O)c1c(I)c(NC(C)=O)c(I)c(C(=O)O)c1I [Iothalamate, iothalamate], the “CE GFR” value ([1]; collection period P1) is reported as 138, the “CE GFR” value ([1]; collection period P2) is reported as 127 and the “CE GFR” value ([1]; collection period P3) is reported as 123. For the same compound, the “CE GFR” value ([1]; collection period P4) was 114, the “CE GFR” value ([1]; collection period P5) was 119 and the “MS GFR” value ([1]; collection period P1) was 141. The “MS GFR” value ([1]; collection period P2) was 114, the “MS GFR” value ([1]; collection period P3) was 120 and the “MS GFR” value ([1]; collection period P4) was 116. For the same compound, the “MS GFR” value ([1]; collection period P5) was 119, the “Plasma iothalamate concentration, CE” value ([1]; plasma collection P1) was 11.645 µg/mL and the “Plasma iothalamate concentration, CE” value ([1]; plasma collection P2) was 9.479 µg/mL. The “Plasma iothalamate concentration, CE” value ([1]; plasma collection P3) was 8.341 µg/mL, the “Plasma iothalamate concentration, CE” value ([1]; plasma collection P4) was 7.334 µg/mL and the “Plasma iothalamate concentration, CE” value ([1]; plasma collection P5) was 6.869 µg/mL. The “Plasma iothalamate concentration, CE” value ([1]; plasma collection P6) was 6.912 µg/mL, the “Plasma iothalamate concentration, MS” value ([1]; plasma collection P1) was 10.6 µg/mL and the “Plasma iothalamate concentration, MS” value ([1]; plasma collection P2) was 9.09 µg/mL. For the same compound, the “Plasma iothalamate concentration, MS” value ([1]; plasma collection P3) was 7.93 µg/mL, the “Plasma iothalamate concentration, MS” value ([1]; plasma collection P4) was 8.21 µg/mL and the “Plasma iothalamate concentration, MS” value ([1]; plasma collection P5) was 7.12 µg/mL. The “Plasma iothalamate concentration, MS” value ([1]; plasma collection P6) was 6.43 µg/mL, the “Urine iothalamate concentration, CE” value ([1]; urine collection U1) was 12.973 µg/mL and the “Urine iothalamate concentration, CE” value ([1]; urine collection U2) was 9.189 µg/mL. The “Urine iothalamate concentration, CE” value ([1]; urine collection U3) was 8.069 µg/mL, the “Urine iothalamate concentration, CE” value ([1]; urine collection U4) was 7.716 µg/mL and the “Urine iothalamate concentration, CE” value ([1]; urine collection U5) was 7.333 µg/mL. For the same compound, the “Urine iothalamate concentration, MS” value ([1]; urine collection U1) was 12.4 µg/mL, the “Urine iothalamate concentration, MS” value ([1]; urine collection U2) was 7.85 µg/mL and the “Urine iothalamate concentration, MS” value ([1]; urine collection U3) was 8.09 µg/mL. For the same compound, the “Urine iothalamate concentration, MS” value ([1]; urine collection U4) was 8.5 µg/mL and the “Urine iothalamate concentration, MS” value ([1]; urine collection U5) was 7.21 µg/mL.
With Nc1ccc(C(=O)NCC(=O)O)cc1 [PAH, p-aminohippuric acid] the “MS ERPF” value ([2]; ERPF per collection period from LC-MS/MS, continuous infusion) was 586 and 514 and 532 and 602 and 566, the “CE ERPF” value ([2]; ERPF per collection period, CE, continuous infusion) was 574 and 534 and 523 and 615 and 543 and the “Plasma PAH concentration, CE” value ([2]; timed plasma collections P1-P6, CE, continuous intravenous infusion) was 17.755 µg/mL and 17.120 µg/mL and 17.740 µg/mL and 18.320 µg/mL and 18.000 µg/mL and 17.635 µg/mL. For the same compound, the “Plasma PAH concentration, MS” value ([2]; timed plasma collections P1-P6, LC-MS/MS, continuous intravenous infusion) was 18.3 µg/mL and 18 µg/mL and 18.7 µg/mL and 18.9 µg/mL and 19.4 µg/mL and 17.9 µg/mL and the “Urine PAH concentration, CE” value ([2]; timed urine collections U1-U5, CE, continuous infusion) was 97.620 µg/mL.
